In patent US20260262643A1, “HERBICIDAL BENZOXAZINES” (FMC CORPORATION, priority 2022, published 2026):

Key:
[1] = test system: horseweed; assay: Test C postemergence; assay type: in vivo, Erigeron canadensis; conditions: 10 days
Method in brief: (§1)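 Visual injury ratings on a 0–100 scale (100 = complete control) were made against untreated controls 10 days after treatment in the greenhouse. Compounds, formulated with surfactant in non-phytotoxic solvent, were sprayed on soil preemergence or onto one- to two-leaf plants 2–10 cm tall postemergence.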

[2] = test system: ducksalad; assay: Test D flooded paddy test; assay type: in vivo, Heteranthera limosa; conditions: 250 g ai/ha, applied to paddy water, visual rating after 13 to 14 days, scale 0 to 100 (0 no effect, 100 complete control)
Method in brief: (§2)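 Plants at the 2-leaf stage were grown in pots flooded to 3 cm, and compound was applied directly into the paddy water, with depth kept throughout. After 13–14 days in a greenhouse, injury was rated visually against untreated controls on a 0–100 scale (100 = complete control); a dash means not tested.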

[3] = test system: wheat; assay: Test C postemergence; assay type: in vivo, Triticum aestivum; conditions: 10 days
Method in brief: as §1

[4] = test system: green foxtail; assay: Test C postemergence; assay type: in vivo, Setaria viridis; conditions: 10 days
Method in brief: as §1

[5] = test system: barnyardgrass; assay: Test C preemergence; assay type: in vivo, Echinochloa crusgalli; conditions: 0 to 100 scale (0 no effect, 100 complete control)
Method in brief: as §1

[6] = test system: rice; assay: Test D flooded paddy test; assay type: in vivo, Oryza sativa; conditions: 250 g ai/ha, applied to paddy water, visual rating after 13 to 14 days, scale 0 to 100 (0 no effect, 100 complete control)
Method in brief: as §2

[7] = test system: oat, wild; assay: Test C postemergence; assay type: in vivo, Avena fatua; conditions: 10 days
Method in brief: as §1

[8] = test system: corn; assay: Test C postemergence; assay type: in vivo, Zea mays; conditions: 10 days
Method in brief: as §1

[9] = test system: wheat; assay: Test C preemergence; assay type: in vivo, Triticum aestivum; conditions: 0 to 100 scale (0 no effect, 100 complete control)
Method in brief: as §1

[10] = test system: barnyardgrass; assay: Test C postemergence; assay type: in vivo, Echinochloa crusgalli; conditions: 10 days
Method in brief: as §1

[11] = test system: pigweed, palmer; assay: Test C preemergence; assay type: in vivo, Amaranthus palmeri; conditions: 0 to 100 scale (0 no effect, 100 complete control)
Method in brief: as §1

[12] = test system: blackgrass; assay: Test C preemergence; assay type: in vivo, Alopecurus myosuroides; conditions: 0 to 100 scale (0 no effect, 100 complete control)
Method in brief: as §1

[13] = test system: sedge, umbrella; assay: Test D flooded paddy test; assay type: in vivo, Cyperus difformis; conditions: 250 g ai/ha, applied to paddy water, visual rating after 13 to 14 days, scale 0 to 100 (0 no effect, 100 complete control)
Method in brief: as §2

[14] = test system: ragweed; assay: Test C preemergence; assay type: in vivo, Ambrosia artemisiifolia; conditions: 0 to 100 scale (0 no effect, 100 complete control)
Method in brief: as §1

[15] = test system: green foxtail; assay: Test C preemergence; assay type: in vivo, Setaria viridis; conditions: 0 to 100 scale (0 no effect, 100 complete control)
Method in brief: as §1

[16] = test system: galium; assay: Test C postemergence; assay type: in vivo, Galium aparine; conditions: 10 days
Method in brief: as §1

[17] = test system: ragweed; assay: Test C postemergence; assay type: in vivo, Ambrosia artemisiifolia; conditions: 10 days
Method in brief: as §1

[18] = test system: corn; assay: Test C preemergence; assay type: in vivo, Zea mays; conditions: 0 to 100 scale (0 no effect, 100 complete control)
Method in brief: as §1

[19] = test system: pigweed, palmer; assay: Test C postemergence; assay type: in vivo, Amaranthus palmeri; conditions: 10 days
Method in brief: as §1

[20] = test system: soybean; assay: Test C preemergence; assay type: in vivo, Glycine max; conditions: 0 to 100 scale (0 no effect, 100 complete control)
Method in brief: as §1

[21] = test system: kochia; assay: Test C postemergence; assay type: in vivo, Bassia scoparia; conditions: 10 days
Method in brief: as §1

[22] = test system: kochia; assay: Test C preemergence; assay type: in vivo, Bassia scoparia; conditions: 0 to 100 scale (0 no effect, 100 complete control)
Method in brief: as §1

[23] = test system: blackgrass; assay: Test C postemergence; assay type: in vivo, Alopecurus myosuroides; conditions: 10 days
Method in brief: as §1

[24] = test system: oat, wild; assay: Test C preemergence; assay type: in vivo, Avena fatua; conditions: 0 to 100 scale (0 no effect, 100 complete control)
Method in brief: as §1

[25] = test system: soybean; assay: Test C postemergence; assay type: in vivo, Glycine max; conditions: 10 days
Method in brief: as §1

[26] = test system: ryegrass, Italian; assay: Test C postemergence; assay type: in vivo, Lolium multiflorum; conditions: 10 days
Method in brief: as §1

[27] = test system: ryegrass, Italian; assay: Test C preemergence; assay type: in vivo, Lolium multiflorum; conditions: 0 to 100 scale (0 no effect, 100 complete control)
Method in brief: as §1

[28] = test system: barnyardgrass; assay: Test D flooded paddy test; assay type: in vivo, Echinochloa crus-galli; conditions: 250 g ai/ha, applied to paddy water, visual rating after 13 to 14 days, scale 0 to 100 (0 no effect, 100 complete control)
Method in brief: as §2

[29] = 125 g ai/ha, postemergence, 0 to 100 scale, 0 no effect, 100 complete control
[30] = Postemergence, 500 g ai/ha, visual 0 to 100 scale (0 no effect, 100 complete control)
[31] = Preemergence, 500 g ai/ha, visual rating after 10 days
[32] = Test C, preemergence, 125 g ai/ha

CCc1ncn(-c2ccc(C)c(C(=O)N3C[C@H](COC)Oc4c(Cl)cccc43)c2)n1 [Compound 265]
Plant response rating, Horseweed [1, 29]: 40
Plant response rating, Horseweed [1, 30]: 60
Plant response rating, Ducksalad (Flood) [2]: 75
Plant response rating, Wheat [3, 29]: 40
Plant response rating, Wheat [3, 30]: 70
Plant response rating, Foxtail, Green [4, 29]: 90
Plant response rating, Foxtail, Green [4, 30]: 90
Plant response rating, Barnyardgrass [5, 31]: 90
Barnyardgrass plant response rating [5, 32]: 90
Plant response rating, Rice (Flood) [6]: 25
Plant response rating, Oat, Wild [7, 29]: 30
Plant response rating, Oat, Wild [7, 30]: 80
Plant response rating, Corn [8, 29]: 60
Plant response rating, Corn [8, 30]: 70
Plant response rating, Wheat [9, 31]: 80
Wheat plant response rating [9, 32]: 70
Plant response rating, Barnyardgrass [10, 29]: 70
Plant response rating, Barnyardgrass [10, 30]: 100
Plant response rating, Pigweed, Palmer [11, 31]: 100
Pigweed, Palmer plant response rating [11, 32]: 100
Plant response rating, Blackgrass [12, 31]: 90
Blackgrass plant response rating [12, 32]: 70
Plant response rating, Sedge, Umbrella (Flood) [13]: 90
Plant response rating, Ragweed [14, 31]: 70
Ragweed plant response rating [14, 32]: 50
Plant response rating, Foxtail, Green [15, 31]: 100
Foxtail, Green plant response rating [15, 32]: 100
Plant response rating, Galium [16, 29]: 100
Plant response rating, Galium [16, 30]: 100
Plant response rating, Ragweed [17, 29]: 80
Plant response rating, Ragweed [17, 30]: 90
Plant response rating, Corn [18, 31]: 90
Corn plant response rating [18, 32]: 30
Plant response rating, Pigweed, Palmer [19, 29]: 70
Plant response rating, Pigweed, Palmer [19, 30]: 100
Plant response rating, Soybean [20, 31]: 90
Soybean plant response rating [20, 32]: 70
Plant response rating, Kochia [21, 29]: 90
Plant response rating, Kochia [21, 30]: 100
Plant response rating, Kochia [22, 31]: 90
Kochia plant response rating [22, 32]: 80
Plant response rating, Blackgrass [23, 29]: 90
Plant response rating, Blackgrass [23, 30]: 90
Plant response rating, Oat, Wild [24, 31]: 90
Oat, Wild plant response rating [24, 32]: 60
Plant response rating, Soybean [25, 29]: 100
Plant response rating, Soybean [25, 30]: 100
Plant response rating, Ryegrass, Italian [26, 29]: 80
Plant response rating, Ryegrass, Italian [26, 30]: 90
Plant response rating, Ryegrass, Italian [27, 31]: 90
Ryegrass, Italian plant response rating [27, 32]: 80
Plant response rating, Barnyardgrass (Flood) [28]: 30
